Measurements taken from patent US20130324413A1, “METHOD FOR PROMOTING PLANT GROWTH” (SUMITOMO CHEMICAL COMPANY, LIMITED, priority 2011, published 2013).

Key:
Format in all cases: in vivo
[1] = tested on: Corn (cultivar: Hughes 5813); test: Test Example 2: corn seed treatment, amount of harvested grains; conditions: grown 226 days
Protocol: Corn (cultivar: Hughes 5813) seeds were separately treated with 25 μg or 125 μg of compound (1b) for each seed. The amount of the compound required for the treatment was determined by calculation assuming 4,000 grains per kg of seeds. The seeds were coated using seed treatment machine HEGE11(produced by Hans-Ulrich Hege). All the seed treatments included Maxim XL (0.167 ounces/100 pounds), Thiram 42S (2.5 ounces/pound), and Cruiser (containing 0.25 mg/seed of thiamethoxam) and CF-Clear polymer at a concentration of 0.5 ounces/pound. The treated seeds were sown and grown for 226 days, and the corn plants were harvested to obtain grains. […] During the testing, no diseases were observed that affected the yield in the present compound-treated group and the non-treated group.

[2] = tested on: corn plants (cultivar: Koshu); test: Test Example 3: corn seed soaking, fresh weight of above-ground part
Protocol: Each of the 1,000-fold concentrated dimethylsulfoxide (DMSO) solutions of compound (1b) was 1,000-fold diluted with water to prepare a soultion of compound (1b) at the test concentration. The solution was dispensed in 30 ml aliquots into […] Petri dishes, in which seeds of corn plants (cultivar: Koshu) were soaked and incubated for 16 hours at 24° C. in the dark. The corn seeds (cultivar: Koshu) were sown in the culture soil (AISAI) in the plastic pots (55 mm in diameter×58 mm in height), and corn seedlings were grown for 18 days under the following, conditions: temperature, 27° C.; illuminance, about 5,000 lux; day length, 16 hours. As a control, a 0.1% aqueous DMSO solution was prepared, and seeds were soaked in this solution and then sown and grown into seedlings in the same way as described above. This group was used as the non-treated group. The fresh weight of the above-ground part of the corn seedlings obtained above was measured. The experiment was performed in four replications for each individual plant at each treatment concentration and the average weight per individual was calculated.

[3] = tested on: Corn (cultivar: PIONEER 120 31P41); test: Test Example 13: corn soil irrigation, low-temperature stress, growth and chlorophyll; conditions: soil irrigation 20 ml, low-temperature stress 2 to 4° C. 5 days
Protocol: Corn seeds (cultivar: PIONEER 120 31P41) are sown in the culture soil (AISAI) in plastic pots (55 mm in diameter×58 mm in height) and grown for 7 days under the following conditions: temperature, 20 to 25° C.; humidity, 50 to 75%; illuminance, about 5,000 lux; day length, 16 hours. A DMSO solution of compound (1b) at a 1,000-fold concentration relative to each test concentration is diluted with distilled water to prepare a test soultion. Twenty (20) ml of the test solution obtained is applied around the base of each plant by soil irrigation, and then the plants are grown for two days under the following conditions: temperature, 27° C., humidity, 50 to 75%; illuminance, about 5,000 lux; day length 16 hours. This group is the present compound-treated group. The group to which 20 ml of a 0.1% aqueous DMSO solution is applied by soil irrigation in place of the DMSO solution of compound (1b) is used as the non-treated group. The plants subjected to the soil irrigation are grown for 5 days under the following conditions, to expose the plants to low-temperature stress: temperature, 2 to 4° C.; humidity, 40 to 70%, illuminance, about 5,000 lux; day length, 16 hours in a phytotron. After the exposure to low-temperature stress, the plants are grown for 4 days under the conditions of a temperature off20 to 25° C., a humidity of 50 to 75%, an illuminance of about 5,000 lux, and a day length of 16 hours. Then the plant weight and the length of true leaves are measured. Also, after the exposure to low-temperature stress, the plants are grown for 1 day under the conditions of a temperature of 20 to 25° C., a humidity of 50 to 75%, an illuminance of about 5,000 lux, and a day length of 16 hours. Then the chlorophyll fluorescence (Fv/Fm) is measured using a pulse modulation chlorophyll fluorometer (MAXI-IMAGING-PAM, WALZ). The chlorophyll content is measured using a chlorophyll gauge (SPAD-502; manufactured by KONICA MINOLTA).

[4] = tested on: Arabidopsis thaliana (ecotype Columbia); test: Test Example 7: Arabidopsis seedlings in medium, high-temperature stress, leaf area; conditions: 30 ppm in medium; high-temperature stress 45° C. 60 minutes; 8 days after; non-treated 3.4 mm^2
Protocol: In a Petri dish, a hydroponic sponge piece (1 cm×1 cm×0.2 cm) was immersed with a half concentration of Murashige-and-Skoog medium (MS culture medium: containing 2.5 mM MES, 1% sucrose and 0.1% Gamborg vitamin solution G1019 (Sigma-Aldrich)). On this sponge piece, 4 to 5 seeds of Arabidopsis thaliana (ecotype Columbia) were aseptically sown. After the low temperature treatment (at 4° C. for 2 to 4 days), the plants were grown for 6 days under the following conditions to obtain Arabidopsis seedlings: temperature, 23° C.; humidity, 45%; illuminance, 3,500 lux; day length, 16 hours. Each 0.5 ml of a half concentration of MS medium was dispensed into a 24-well plate (SUMILON MS-80240; manufactured by Sumitomo Bakelite), onto which […] of a 1,000-fold concentrated DMSO solution of compound (1b) was added to prepare medium containing compound (1b) at a concentration of 30 ppm. After thinning the Arabidopsis seedlings to 2 plants per sponge, the seedlings were transplanted in the compound (1b)-containing medium in each well of the 24-well plate, together with the sponge piece and then grown overnight. […] Each well was photographed with a digital camera and the green area in the photograph was measured using image analysis software Win ROOF (manufactured by MITANI CORPORATION), thereby quantifying the leaf areas of the plants.

Structure (SMILES): CNC(=O)C(OC)c1ccccc1COc1cc(C)ccc1C (racemic) [Compound (1b), N-methyl-2-[2-(2,5-dimethylphenoxy)methyl]phenyl-2-methoxyacetamide]
- increase in amount of the harvested grains as compared with the non-treated group ([1]; seeds treated with 25 μg per seed): 11%
- increase in amount of the harvested grains as compared with the non-treated group ([1]; seeds treated with 125 μg per seed): 9%
- fresh weight of the above-ground part as compared with the non-treated group ([2]; concentration of 3 ppm): increased
- Average fresh weight of above-ground part ([2]; seed soaking 3 ppm, 16 hours, grown 18 days, non-treated 4.47 g): 6.60 g
- chlorophyll fluorescence (Fv/Fm) as compared with the non-treated group ([3]; then 1 day growth): increases
- length of true leaves as compared with the non-treated group ([3]; then 4 days growth): increased
- plant weight as compared with the non-treated group ([3]; then 4 days growth): increased
- chlorophyll content as compared with the non-treated group ([3]; chlorophyll gauge SPAD-502): increases
- Mean leaf area of plants [4]: 12.6 mm^2
